Reference: patent publication US20110217240A1, “IMAGING NEUROLEPTIC COMPOUNDS” (priority 2008, published 2011)

System: apomorphine-induced dopaminergic neurotransmission
Experiment: BOLD fMRI of neuronal/glial activity in conscious rats pre-treated with an antipsychotic and challenged with apomorphine
Assay type: in vivo, rat
Details: for neuronal/glial activity in the anterior thalamic nuclei / neuronal/glial activity in the pituitary gland: antipsychotic pre-treatment i.p. (chlorpromazine, clozapine, olanzapine 5 mg/kg; haloperidol 1 mg/kg)
Source text: To image the brain activity of live rats (Charles River Laboratories, Wilmington, Mass.), the rats were anesthetized with 2-3% isoflurane (Abbott Laboratories, North Chicago, Ill.). Nine (9) rats were used for each experimental condition. A topical anesthetic of 10% lidocaine gel was applied to the skin and soft tissue around the ear canals and over the bridge of the nose. A plastic semi-circular headpiece with blunted ear supports that fit into the ear canals was positioned over the ears. The head was placed into a cylindrical head holder with the rat's canines secured over a bite bar and ears positioned inside the head holder with adjustable screws fitted into lateral sleeves. An adjustable, receive-only surface coil built into the head holder was pressed firmly on the head and locked into place. The body of the rat was placed into a body restrainer. The body restrainer “floats” down the center of the chassis connecting at the front and rear end-plates and buffered by rubber gaskets. The head piece locks into a mounting post on the front of the chassis. This design isolates all of the body movements from the head restrainer and minimizes motion artifact. Once the rat was positioned in the body holder, a transmit-only volume coil was slid over the head restrainer and locked into position.
When the rats were fully conscious, the restraining unit was placed into a black opaque tube mock scanner with a tape-recording of an MRI pulse sequence. This acclimation protocol lasted for 60 minutes in order to simulate the bore of the magnet and the imaging protocol. This procedure was repeated every other day for four days.
Experiments were conducted in a Bruker Biospec 4.7-T/40-cm horizontal magnet (Oxford Instrument, Oxford, U.K.) equipped with a Biospec Bruker console (Bruker, Billerica, Mass., U.S.A.) and a 20 G/cm magnetic field gradient insert (internal diameter=12 cm) capable of a 120 μs rise time (Bruker). Radiofrequency (RF) signals were sent and received with the dual coil electronics built into the animal restrainer (Ludwig et al., 2004, J. Neurosci. Methods 132(2):125-35). The volume coil for transmitting RF signal features an 8-element microstrip line configuration in conjunction with an outer copper shield. The arch-shaped geometry of the receiving surface coil provides excellent coverage and high signal-to-noise. To prevent mutual coil interference, the volume and surface coils were actively tuned and detuned.
Functional images were acquired using a multi-slice fast spin echo sequence. A single data acquisition included twelve (12), 1.2 mm slices collected in 6 seconds (field of view (FOV) 3.0 cm; data matrix 64×64; repetition time (TR) 1.43 sec, effective echo time (Eff TE) 53.3 msec, echo time (TE) 7 msec; rapid acquisition with relaxation enhancement (RARE) factor 16, number of excitations (NEX) 1). This sequence was repeated 100 times in a 10 minute imaging session, consisting of 5 minutes of baseline data followed by 5 minutes of stimulation data. At the beginning of each imaging session, a high resolution anatomical data set was collected using a RARE pulse sequence (12 slice; 1.2 mm; FOV 3.0 cm; 256×256; TR 2.1 sec; TE 12.4 msec; NEX 6; 7 minute acquisition time).
For each subject, rigid body motion in x-, y- and z-direction was computed with Stimulate software (Strupp, 1996, NeuroImage 3:S607) using center of intensity method. […] A conservative criteria of 120 μm standard deviation of motion in any direction was set as acceptance criteria.

[1] = then apomorphine 20 μg/10 μl ICV, BOLD fMRI, conscious rat
[2] = pre-treatment 5 mg/kg i.p., then apomorphine 20 μg/10 μl ICV, BOLD fMRI, conscious rat
[3] = apomorphine 20 μg/10 μl ICV, BOLD fMRI, conscious rat

| SMILES | neuronal/glial activity in the anterior thalamic nuclei [1] | neuronal/glial activity in the pituitary gland [1] | neuronal/glial activity in the dorsal striatum (antipsychotic pre-treatment i.p. (chlorpromazine, clozapine, olanzapine 5 mg/kg), then apomorphine 20 μg/10 μl ICV, BOLD fMRI, conscious rat) | neuronal/glial activity in the CA1 region of the hippocampus [2] | neuronal/glial activity in the CA3 region of the hippocampus [2] | neuronal/glial activity in the dentate gyms region of the hippocampus [2] | neuronal/glial activity in the subiculum region of the hippocampus [2] | neuronal/glial activity throughout the hippocampus [2] | activation of the anterior thalamic nuclei by apomorphine [3] | activation of the dorsal striatum by apomorphine [3] | activation of the pituitary gland by apomorphine [3] | activation of the mesocorticolimbic dopamine system (reward pathway) by apomorphine (apomorphine alone, 20 μg/10 μl ICV, BOLD fMRI, conscious rat) | change in BOLD signal intensity in the pituitary gland (time course following ICV administration of apomorphine (FIG. 3A)) | change in BOLD signal intensity in the anterior thalamic nuclei (time course following ICV administration of apomorphine (FIG. 3B)) | change in BOLD signal intensity in the dorsal striatum (time course following ICV administration of apomorphine (FIG. 3C)) |
| --- | --- | --- | --- | --- | --- | --- | --- | --- | --- | --- | --- | --- | --- | --- | --- |
| O=C(CCCN1CCC(O)(c2ccc(Cl)cc2)CC1)c1ccc(F)cc1 [haloperidol] | reducing apomorphine-induced neuronal/glial activity | reducing apomorphine-induced neuronal/glial activity |  |  |  |  |  |  |  |  |  |  |  |  |  |
| CN(C)CCCN1c2ccccc2Sc2ccc(Cl)cc21 [chlorpromazine] | pronounced reduction | pronounced reduction | reduced | significant reduction in neuronal/glial activity | significant reduction in neuronal/glial activity | significant reduction in neuronal/glial activity | significant reduction in neuronal/glial activity | selective reduction in activity |  |  |  |  |  |  |  |
| CN1CCc2cccc3c2[C@H]1Cc1ccc(O)c(O)c1-3 [apomorphine] |  |  |  |  |  |  |  |  | activated | activated | activated | activated | increased | increased | increased |
